Data taken from US12539292B2, “BRM targeting compounds and associated methods of use” (Arvinas Operations, Inc., priority 2018, dated 2026).

Target: T1, BRM (Homo sapiens, UniProt P51531)
T1 construct: In-Cell Western Screen of BRM Degradation in SW1573 Cells; endogenous in cells; host or cells: SW1573
Experiment: In-cell Western screen of BRM degradation in SW1573 cells (Dmax and DC50)
Type: cell-based
Settings: for Dmax: SW1573, % degraded, when tested at the top concentration of between 0.3 and 10 μM, read-out: BRM Dmax (%); for DC50: target protein degradation, read-out: BRM DC50
How it was run: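 SW1573, overnight cpd exposure (18-20 h), 0.1% DMSO final. PFA fix, 0.5% Triton permeabilization, block; IR secondaries at 800/680 nm. Odyssey read → Dmax, DC50.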

T1 sequence (P51531 whole entry): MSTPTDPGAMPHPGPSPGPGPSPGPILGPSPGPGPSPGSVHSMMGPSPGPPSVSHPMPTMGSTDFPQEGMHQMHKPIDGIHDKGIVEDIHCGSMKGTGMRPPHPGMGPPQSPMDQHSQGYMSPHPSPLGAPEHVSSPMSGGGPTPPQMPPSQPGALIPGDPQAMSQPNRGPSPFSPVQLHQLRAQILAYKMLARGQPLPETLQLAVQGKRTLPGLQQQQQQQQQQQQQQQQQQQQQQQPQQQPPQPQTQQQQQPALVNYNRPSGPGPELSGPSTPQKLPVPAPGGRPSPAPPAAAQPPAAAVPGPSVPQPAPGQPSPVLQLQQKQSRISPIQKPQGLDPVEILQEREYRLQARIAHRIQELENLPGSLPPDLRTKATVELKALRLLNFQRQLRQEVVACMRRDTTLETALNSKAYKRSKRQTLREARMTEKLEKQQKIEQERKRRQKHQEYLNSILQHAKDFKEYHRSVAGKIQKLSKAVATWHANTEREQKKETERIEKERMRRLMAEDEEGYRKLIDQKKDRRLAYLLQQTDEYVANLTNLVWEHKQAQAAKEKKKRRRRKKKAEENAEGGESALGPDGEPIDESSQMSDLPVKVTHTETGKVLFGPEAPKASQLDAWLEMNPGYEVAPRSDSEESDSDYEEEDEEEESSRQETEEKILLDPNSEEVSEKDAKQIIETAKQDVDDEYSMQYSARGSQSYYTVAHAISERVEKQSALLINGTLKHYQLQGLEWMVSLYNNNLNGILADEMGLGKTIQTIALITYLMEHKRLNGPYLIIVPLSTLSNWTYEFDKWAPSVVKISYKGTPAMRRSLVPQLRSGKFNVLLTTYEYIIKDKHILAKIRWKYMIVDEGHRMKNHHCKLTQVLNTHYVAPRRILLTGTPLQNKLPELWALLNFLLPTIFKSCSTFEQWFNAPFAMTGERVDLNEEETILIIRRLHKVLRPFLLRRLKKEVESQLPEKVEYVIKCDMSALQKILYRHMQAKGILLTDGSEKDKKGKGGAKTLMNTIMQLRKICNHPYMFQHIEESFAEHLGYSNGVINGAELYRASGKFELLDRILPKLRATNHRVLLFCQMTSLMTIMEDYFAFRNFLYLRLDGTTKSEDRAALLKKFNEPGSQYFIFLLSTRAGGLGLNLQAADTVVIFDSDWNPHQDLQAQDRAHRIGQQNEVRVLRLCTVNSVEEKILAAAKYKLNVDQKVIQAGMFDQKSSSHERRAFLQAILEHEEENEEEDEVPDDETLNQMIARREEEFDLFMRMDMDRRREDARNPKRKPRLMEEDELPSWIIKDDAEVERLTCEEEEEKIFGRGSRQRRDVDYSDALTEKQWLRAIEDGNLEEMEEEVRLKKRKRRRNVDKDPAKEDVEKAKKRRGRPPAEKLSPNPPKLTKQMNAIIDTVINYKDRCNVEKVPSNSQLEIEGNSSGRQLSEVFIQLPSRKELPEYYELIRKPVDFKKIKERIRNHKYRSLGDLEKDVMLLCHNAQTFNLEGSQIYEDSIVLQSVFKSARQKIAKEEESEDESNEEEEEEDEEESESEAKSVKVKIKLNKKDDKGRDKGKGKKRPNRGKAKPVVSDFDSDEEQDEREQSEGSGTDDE

DC50 [nM]	Compound	Dmax [%]
> 30	Cc1ncsc1-c1ccc([C@H](C)NC(=O)[C@@H]2C[C@@H](O)CN2C(=O)[C@@H](c2cc(OCCC3CCN(C(=O)[C@H]4C[C@H](CN5CCC(n6cc(-c7cc(-c8ccccc8O)nnc7N)cn6)CC5)C4)CC3)no2)C(C)C)cc1 [compound 468, (2S,4R)-1-((R)-2-(3-(2-(1-((1r,3R)-3-((4-(4-(3-amino-6-(2-hydroxyphenyl)pyridazin-4-yl)-1H-pyrazol-1-yl)piperidin-1-yl)methyl)cyclobutane-1-carbonyl)piperidin-4-yl)ethoxy)isoxazol-5-yl)-3-methylbutanoyl)-4-hydroxy-N-((S)-1-(4-(4-methylthiazol-5-yl)phenyl)ethyl)pyrrolidine-2-carboxamide]	–
> 30	Cc1ncsc1-c1ccc([C@H](C)NC(=O)[C@@H]2C[C@@H](O)CN2C(=O)[C@H](c2cc(N3CCC(OC4CCN(C[C@H]5C[C@H](Oc6cc(N7C8CCC7CN(c7cc(-c9ccccc9O)nnc7N)C8)ccn6)C5)CC4)CC3)no2)C(C)C)cc1 [compound 469, (2S,4R)-1-((2S)-2-(3-(4-((1-(((1r,3r)-3-((4-(3-(3-amino-6-(2-hydroxyphenyl)pyridazin-4-yl)-3,8-diazabicyclo[3.2.1]octan-8-yl)pyridin-2-yl)oxy)cyclobutyl)methyl)piperidin-4-yl)oxy)piperidin-1-yl)isoxazol-5-yl)-3-methylbutanoyl)-4-hydroxy-N-((S)-1-(4-(4-methylthiazol-5-yl)phenyl)ethyl)pyrrolidine-2-carboxamide]	–
> 30	Cc1ncsc1-c1ccc([C@H](C)NC(=O)[C@@H]2C[C@@H](O)CN2C(=O)[C@H](c2cc(N3CCC(CC4CCN(C[C@H]5C[C@H](Oc6cc(N7C8CCC7CN(c7cc(-c9ccccc9O)nnc7N)C8)ccn6)C5)CC4)CC3)no2)C(C)C)cc1 [compound 472, (2S,4R)-1-((2S)-2-(3-(4-((1-(((1r,3r)-3-((4-(3-(3-amino-6-(2-hydroxyphenyl)pyridazin-4-yl)-3,8-diazabicyclo[3.2.1]octan-8-yl)pyridin-2-yl)oxy)cyclobutyl)methyl)piperidin-4-yl)methyl)piperidin-1-yl)isoxazol-5-yl)-3-methylbutanoyl)-4-hydroxy-N-((S)-1-(4-(4-methylthiazol-5-yl)phenyl)ethyl)pyrrolidine-2-carboxamide]	–
> 30	Cc1ncsc1-c1ccc([C@H](C)NC(=O)[C@@H]2C[C@@H](O)CN2C(=O)[C@H](c2cc(N3CCC(OC4CCN(C[C@H]5C[C@H](Oc6cc(N7C8CCC7CN(c7cc(-c9ccccc9O)nnc7N)C8)ccn6)C5)CC4)CC3)no2)C(C)C)cn1 [compound 475, (2S,4R)-1-((2S)-2-(3-(4-((1-(((1r,3r)-3-((4-(3-(3-amino-6-(2-hydroxyphenyl)pyridazin-4-yl)-3,8-diazabicyclo[3.2.1]octan-8-yl)pyridin-2-yl)oxy)cyclobutyl)methyl)piperidin-4-yl)oxy)piperidin-1-yl)isoxazol-5-yl)-3-methylbutanoyl)-4-hydroxy-N-((S)-1-(6-(4-methylthiazol-5-yl)pyridin-3-yl)ethyl)pyrrolidine-2-carboxamide]	–
> 30	Cc1nccn1-c1ccc([C@H](C)NC(=O)[C@@H]2C[C@@H](O)CN2C(=O)[C@H](c2cc(N3CCC(OC4CCN(C[C@H]5C[C@H](Oc6cc(N7C8CCC7CN(c7cc(-c9ccccc9O)nnc7N)C8)ccn6)C5)CC4)CC3)no2)C(C)C)cc1 [compound 477, (2S,4R)-1-((2S)-2-(3-(4-((1-(((1r,3r)-3-((4-(3-(3-amino-6-(2-hydroxyphenyl)pyridazin-4-yl)-3,8-diazabicyclo[3.2.1]octan-8-yl)pyridin-2-yl)oxy)cyclobutyl)methyl)piperidin-4-yl)oxy)piperidin-1-yl)isoxazol-5-yl)-3-methylbutanoyl)-4-hydroxy-N-((S)-1-(4-(2-methyl-1H-imidazol-1-yl)phenyl)ethyl)pyrrolidine-2-carboxamide]	–

Continued, compound first:

Compound	DC50 [nM]	Dmax [%]
Cc1ncsc1-c1ccc([C@H](C)NC(=O)[C@@H]2C[C@@H](O)CN2C(=O)[C@H](c2cc(OCCC3CCN(C(=O)[C@H]4C[C@@H](CN5CCC(n6cc(-c7cc(-c8ccccc8O)nnc7N)cn6)CC5)C4)CC3)no2)C(C)C)cc1 [compound 465, (2S,4R)-1-((S)-2-(3-(2-(1-((1s,3R)-3-((4-(4-(3-amino-6-(2-hydroxyphenyl)pyridazin-4-yl)-1H-pyrazol-1-yl)piperidin-1-yl)methyl)cyclobutane-1-carbonyl)piperidin-4-yl)ethoxy)isoxazol-5-yl)-3-methylbutanoyl)-4-hydroxy-N-((S)-1-(4-(4-methylthiazol-5-yl)phenyl)ethyl)pyrrolidine-2-carboxamide]	< 2.5	> 75
Cc1ncsc1-c1ccc([C@H](C)NC(=O)[C@@H]2C[C@@H](O)CN2C(=O)[C@@H](c2cc(OCCC3CCN(C(=O)[C@H]4C[C@@H](CN5CCC(n6cc(-c7cc(-c8ccccc8O)nnc7N)cn6)CC5)C4)CC3)no2)C(C)C)cc1 [compound 466, (2S,4R)-1-((R)-2-(3-(2-(1-((1s,3S)-3-((4-(4-(3-amino-6-(2-hydroxyphenyl)pyridazin-4-yl)-1H-pyrazol-1-yl)piperidin-1-yl)methyl)cyclobutane-1-carbonyl)piperidin-4-yl)ethoxy)isoxazol-5-yl)-3-methylbutanoyl)-4-hydroxy-N-((S)-1-(4-(4-methylthiazol-5-yl)phenyl)ethyl)pyrrolidine-2-carboxamide]	> 30	–
Cc1ncsc1-c1ccc([C@H](C)NC(=O)[C@@H]2C[C@@H](O)CN2C(=O)[C@H](c2cc(OCCC3CCN(C(=O)[C@H]4C[C@H](CN5CCC(n6cc(-c7cc(-c8ccccc8O)nnc7N)cn6)CC5)C4)CC3)no2)C(C)C)cc1 [compound 467, (2S,4R)-1-((S)-2-(3-(2-(1-((1r,3S)-3-((4-(4-(3-amino-6-(2-hydroxyphenyl)pyridazin-4-yl)-1H-pyrazol-1-yl)piperidin-1-yl)methyl)cyclobutane-1-carbonyl)piperidin-4-yl)ethoxy)isoxazol-5-yl)-3-methylbutanoyl)-4-hydroxy-N-((S)-1-(4-(4-methylthiazol-5-yl)phenyl)ethyl)pyrrolidine-2-carboxamide]	< 2.5	> 75
Cc1ncsc1-c1ccc([C@H](C)NC(=O)[C@@H]2C[C@@H](O)CN2C(=O)[C@H](c2cc(OCCN3CCC(O[C@H]4C[C@H](Oc5cnnc(N6C7CCC6CN(c6cc(-c8ccccc8O)nnc6N)C7)c5)C4)CC3)no2)C(C)C)cc1 [compound 470, (2S,4R)-1-((2S)-2-(3-(2-(4-((1r,3S)-3-((6-(3-(3-amino-6-(2-hydroxyphenyl)pyridazin-4-yl)-3,8-diazabicyclo[3.2.1]octan-8-yl)pyridazin-4-yl)oxy)cyclobutoxy)piperidin-1-yl)ethoxy)isoxazol-5-yl)-3-methylbutanoyl)-4-hydroxy-N-((S)-1-(4-(4-methylthiazol-5-yl)phenyl)ethyl)pyrrolidine-2-carboxamide]	> 30	–
Cc1ncsc1-c1ccc([C@H](C)NC(=O)[C@@H]2C[C@@H](O)CN2C(=O)[C@@H](c2cc(OCCN3CCC(O[C@H]4C[C@H](Oc5cnnc(N6C7CCC6CN(c6cc(-c8ccccc8O)nnc6N)C7)c5)C4)CC3)no2)C(C)C)cc1 [compound 471, (2S,4R)-1-((2R)-2-(3-(2-(4-((1r,3R)-3-((6-(3-(3-amino-6-(2-hydroxyphenyl)pyridazin-4-yl)-3,8-diazabicyclo[3.2.1]octan-8-yl)pyridazin-4-yl)oxy)cyclobutoxy)piperidin-1-yl)ethoxy)isoxazol-5-yl)-3-methylbutanoyl)-4-hydroxy-N-((S)-1-(4-(4-methylthiazol-5-yl)phenyl)ethyl)pyrrolidine-2-carboxamide]	< 2.5	> 75
Cc1ncsc1-c1ccc([C@H](C)NC(=O)[C@@H]2C[C@@H](O)CN2C(=O)[C@@H](c2cc(N3CCC(CC4CCN(C[C@H]5C[C@H](Oc6cc(N7C8CCC7CN(c7cc(-c9ccccc9O)nnc7N)C8)ccn6)C5)CC4)CC3)no2)C(C)C)cc1 [compound 473, (2S,4R)-1-((2R)-2-(3-(4-((1-(((1r,3r)-3-((4-(3-(3-amino-6-(2-hydroxyphenyl)pyridazin-4-yl)-3,8-diazabicyclo[3.2.1]octan-8-yl)pyridin-2-yl)oxy)cyclobutyl)methyl)piperidin-4-yl)methyl)piperidin-1-yl)isoxazol-5-yl)-3-methylbutanoyl)-4-hydroxy-N-((S)-1-(4-(4-methylthiazol-5-yl)phenyl)ethyl)pyrrolidine-2-carboxamide]	< 2.5	> 75
Cc1ncsc1-c1ccc([C@H](C)NC(=O)[C@@H]2C[C@@H](O)CN2C(=O)[C@@H](c2cc(N3CCC(OC4CCN(C[C@H]5C[C@H](Oc6cc(N7C8CCC7CN(c7cc(-c9ccccc9O)nnc7N)C8)ccn6)C5)CC4)CC3)no2)C(C)C)cc1 [compound 474, (2S,4R)-1-((2R)-2-(3-(4-((1-(((1r,3r)-3-((4-(3-(3-amino-6-(2-hydroxyphenyl)pyridazin-4-yl)-3,8-diazabicyclo[3.2.1]octan-8-yl)pyridin-2-yl)oxy)cyclobutyl)methyl)piperidin-4-yl)oxy)piperidin-1-yl)isoxazol-5-yl)-3-methylbutanoyl)-4-hydroxy-N-((S)-1-(4-(4-methylthiazol-5-yl)phenyl)ethyl)pyrrolidine-2-carboxamide]	< 2.5	> 75
Cc1ncsc1-c1ccc([C@H](C)NC(=O)[C@@H]2C[C@@H](O)CN2C(=O)[C@@H](c2cc(N3CCC(OC4CCN(C[C@H]5C[C@H](Oc6cc(N7C8CCC7CN(c7cc(-c9ccccc9O)nnc7N)C8)ccn6)C5)CC4)CC3)no2)C(C)C)cn1 [compound 476, (2S,4R)-1-((2R)-2-(3-(4-((1-(((1r,3r)-3-((4-(3-(3-amino-6-(2-hydroxyphenyl)pyridazin-4-yl)-3,8-diazabicyclo[3.2.1]octan-8-yl)pyridin-2-yl)oxy)cyclobutyl)methyl)piperidin-4-yl)oxy)piperidin-1-yl)isoxazol-5-yl)-3-methylbutanoyl)-4-hydroxy-N-((S)-1-(6-(4-methylthiazol-5-yl)pyridin-3-yl)ethyl)pyrrolidine-2-carboxamide]	< 2.5	> 75
